Two molecules from US6352982B1, “4,1-benzoxazepines, their analogues, and their use as somatostatin agonists” (Takeda Chemical Industries, Ltd., priority 1997, dated 2002) can be followed below.

Structures can show the parent of a compound that is named as a salt.

Assay [1] addresses T1, human somatostatin receptor SSTR4 (Homo sapiens, UniProt P31391).
T1 construct: expressed in transfected cells; host or cells: CHO (dhfr-) cells, strain SSTR4-1-2
The assay is described as follows: Binding inhibition of 125I-somatostatin, CHO cell membrane fraction. To be noted: 125I-somatostatin binding, 25° C. for 60 minutes, read-out: Activities for human somatostatin receptor (IC50 value) SSTR4. Here is the method: (§1) A human somatostatin receptor expression CHO cell strain, SSTR1-8-3, SSTR2-HS5-9, SSTR3-15-19, SSTR4-1-2 or SSTR5-32-4 (10^9), was suspended in a phosphate buffered saline containing 5mM of EDTA (PBS-EDTA). The suspension was centrifuged. To the cell pellet was added 10 ml of a homogenation buffer solution for cells (10 mM NaHCO3, 5 mM EDTA, pH=7.5). The mixture was homogenized by a Politron homogenizer and centrifuged at 400×g for 15 minutes. The supernatant obtained was farther centrifuged at 100,000×g for an hour to obtain a precipitate of the membrane fraction. The precipitate was suspended in 2 ml of a buffer solution for assay ([…], 0.1% of BSA (bovine serum albumin) and […], 1 μ/ml of pepstatin, 20 μg/ml of leupeptin, 10 μg/ml of phosphoramide, pH=7.5). The suspension was centrifuged at […] for an hour. The membrane fraction recovered as precipitate was suspended again in 20 ml of buffer solution for assay. The suspension was placed in tubes and stored at −80° C. The suspension was thawed when used, and used at every use.
(§2) The membrane fraction prepared in Example 1 was diluted with a buffer solution for assay to adjust the concentration to 3 μg/ml. The diluate was placed in tubes each in quantity of 173 μl. To this were simultaneously added 2 μl of a solution of a compound in DMSO and 25μl of a 200pM radioisotope-labeled somatostatin (^125I-somatostatin: Amersham) solution. For measurement of the maximum binding, a reaction mixture added with 2 μl of DMSO and 25μl of a 200pM ^125I-somatostatin solution was prepared. For measurement of non-specific binding, a reaction mixture added with 2 μl of a 100 μM somatostatin solution diluted in DMSO and 25 μl of a 200pM ^125I-somatostatin solution was prepared at the same time. The mixtures were allowed to react at 25° C. for 60 minutes. Then, the reaction mixture was filtered by aspiration using a GF/B glass fiber filter paper (Whatman) treated with polyethylenimine. After filtration, the radioactivity of 125I-somatostatin remaining on the filter paper was measured by a γ-counter.
(§3) The binding rate (%) of each compound was calculated by the formula: […]
(§4) (where PBM: Percent maximum Binding, B: radioactivity when a compound was added, Bo: maximum binding radioactivity, NSB: non-specific binding radioactivity). The binding rates were calculated by changing the concentrations of the compound to obtain the 50% inhibiting concentration of the compound (IC50 value) by the Hil l plots.
(§5) The activities (IC50 value, μM) of the compounds for each human somatostatin receptor obtained by the above method are shown in the following Table 5.

The target in assay [2] is T2, human somatostatin receptor SSTR2 (Homo sapiens, UniProt P30874).
T2 construct: expressed in transfected cells; host or cells: CHO (dhfr-) cells, strain SSTR2-HS5-9
T2 sequence (P30874 whole entry): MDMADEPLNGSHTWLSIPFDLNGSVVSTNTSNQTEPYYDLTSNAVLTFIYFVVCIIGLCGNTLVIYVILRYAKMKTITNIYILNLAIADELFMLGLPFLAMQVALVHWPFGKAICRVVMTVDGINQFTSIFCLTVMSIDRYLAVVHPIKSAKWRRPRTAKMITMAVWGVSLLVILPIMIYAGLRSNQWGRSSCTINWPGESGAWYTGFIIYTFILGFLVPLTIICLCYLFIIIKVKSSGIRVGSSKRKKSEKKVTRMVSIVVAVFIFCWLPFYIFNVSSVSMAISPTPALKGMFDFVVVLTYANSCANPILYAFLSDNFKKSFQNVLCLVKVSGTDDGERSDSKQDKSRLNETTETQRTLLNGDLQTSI
Described as above. To be noted: 125I-somatostatin binding, 25° C. for 60 minutes, read-out: Activities for human somatostatin receptor (IC50 value) SSTR2. As to the method:
as §1, §2, §3, §4, §5

Assay [3] addresses T3, human somatostatin receptor SSTR3 (Homo sapiens, UniProt P32745).
T3 construct: expressed in transfected cells; host or cells: CHO (dhfr-) cells, strain SSTR3-15-19
The description is as above. To be noted: 125I-somatostatin binding, 25° C. for 60 minutes, read-out: Activities for human somatostatin receptor (IC50 value) SSTR3. As to the method:
as §1, §2, §3, §4, §5

Assay [4] addresses T4, human somatostatin receptor SSTR5 (Homo sapiens, UniProt P35346).
T4 construct: expressed in transfected cells; host or cells: CHO (dhfr-) cells, strain SSTR5-3-2-4 (also printed SSTR5-32-4)
The assay is described as above. The settings on record: 125I-somatostatin binding, 25° C. for 60 minutes, read-out: Activities for human somatostatin receptor (IC50 value) SSTR5. As to the method: as §1, §2, §3, §4, §5

The next assay relates to Sprague-Dawley (SD) rats. The assay can be described thus: Inhibition of GH secretion using Sprague-Dawley rats. To be noted: male SD rats, 3 mg/kg intraperitoneally. The format is in vivo, rat. Here is the method: Male rats of SD strain were divided into the compound treatment group (n=5) and the control group (n=4). The rats in the compound treatment group were administered intraperitoneally with 0.5% methylcellulose saline solution containing the compound of Example 5 in the concentration of 3 mg/kg/5 ml, and the animals of the control group were administered intraperitoneally with 5 ml/kg of 0.5% methylcellulose saline solution. Four hours after administration, the rats were decapitated without anesthesia and whole blood was collected. The aliquots of 1 ml each of the plasma were obtained from the blood by centrifugation at 2,500 rpm at 4° C. for 30 minutes and stored at −20° C. Plasma GH concentrations were determined by RIA using the rat GH [ I] assay system (Amersham).

The target in assay [5] is T5, human somatostatin receptor SSTR1 (Homo sapiens, UniProt P30872).
T5 construct: expressed in transfected cells; host or cells: CHO (dhfr-) cells, strain SSTR1-8-3
T5 sequence (P30872 whole entry): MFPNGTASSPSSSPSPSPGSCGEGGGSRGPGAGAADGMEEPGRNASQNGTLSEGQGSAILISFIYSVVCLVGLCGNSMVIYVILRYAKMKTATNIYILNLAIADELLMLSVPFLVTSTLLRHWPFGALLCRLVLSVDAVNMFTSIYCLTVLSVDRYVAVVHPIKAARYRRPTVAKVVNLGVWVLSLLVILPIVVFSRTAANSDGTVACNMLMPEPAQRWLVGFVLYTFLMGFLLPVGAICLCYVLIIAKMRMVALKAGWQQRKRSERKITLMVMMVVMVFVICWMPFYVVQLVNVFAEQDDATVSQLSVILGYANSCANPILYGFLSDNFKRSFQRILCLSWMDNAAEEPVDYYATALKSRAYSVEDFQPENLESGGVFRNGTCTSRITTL
The assay can be described thus: Binding inhibition of 125I-somatostatin, CHO cell membrane fraction. To be noted: 125I-somatostatin binding, 25° C. for 60 minutes, read-out: Activities for human somatostatin receptor (IC50 value) SSTR1. Here is the method:
as §1, §2, §3, §4, §5

T3 sequence (P32745 whole entry): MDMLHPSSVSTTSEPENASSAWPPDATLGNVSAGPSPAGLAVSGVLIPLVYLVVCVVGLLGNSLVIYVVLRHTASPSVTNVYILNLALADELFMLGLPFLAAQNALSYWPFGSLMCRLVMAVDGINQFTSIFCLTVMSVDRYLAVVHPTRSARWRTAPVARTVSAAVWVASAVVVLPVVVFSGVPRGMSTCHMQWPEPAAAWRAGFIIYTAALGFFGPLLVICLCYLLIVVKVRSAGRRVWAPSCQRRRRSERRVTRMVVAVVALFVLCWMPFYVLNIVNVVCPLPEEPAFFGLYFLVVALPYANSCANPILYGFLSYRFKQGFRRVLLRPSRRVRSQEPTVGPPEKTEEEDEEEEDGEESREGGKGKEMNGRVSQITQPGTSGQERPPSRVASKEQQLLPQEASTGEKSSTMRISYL
T1 sequence (P31391 whole entry): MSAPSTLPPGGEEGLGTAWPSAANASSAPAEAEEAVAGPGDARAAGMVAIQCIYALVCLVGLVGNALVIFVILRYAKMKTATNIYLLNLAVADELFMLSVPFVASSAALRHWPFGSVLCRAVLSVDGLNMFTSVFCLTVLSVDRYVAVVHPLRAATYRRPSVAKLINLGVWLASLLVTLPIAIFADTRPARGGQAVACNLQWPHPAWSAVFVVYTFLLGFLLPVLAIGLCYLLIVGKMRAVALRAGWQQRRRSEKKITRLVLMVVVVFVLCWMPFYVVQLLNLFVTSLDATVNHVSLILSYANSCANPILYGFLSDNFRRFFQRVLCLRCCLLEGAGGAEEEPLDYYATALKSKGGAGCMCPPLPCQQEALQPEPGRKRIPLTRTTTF
T4 sequence (P35346 whole entry): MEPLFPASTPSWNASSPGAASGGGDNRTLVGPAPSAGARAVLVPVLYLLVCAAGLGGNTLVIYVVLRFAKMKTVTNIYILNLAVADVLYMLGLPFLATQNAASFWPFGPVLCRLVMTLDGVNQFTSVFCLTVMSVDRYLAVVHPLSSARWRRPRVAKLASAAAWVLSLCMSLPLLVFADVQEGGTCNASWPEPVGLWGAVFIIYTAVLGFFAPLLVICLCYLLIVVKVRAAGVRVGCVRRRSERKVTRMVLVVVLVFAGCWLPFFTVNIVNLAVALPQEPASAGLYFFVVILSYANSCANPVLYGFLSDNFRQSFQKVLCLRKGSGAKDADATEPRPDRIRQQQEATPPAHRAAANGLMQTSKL

With `NCc1cccc(C2OC(CC(=O)NCc3ccccc3F)C(=O)N(Cc3ccc(-c4ccccc4)cc3)c3ccc(Cl)cc32)c1` (stereo not drawn) [Example 5, 3,5-Trans-N-(2-fluorobenzyl)-5-(3-aminomethylphenyl)-1-(4-biphenylmethyl)-7-chloro-2-oxo-1,2,3,5-tetrahydro-4,1-benzoxazepine-3-acetamide•monohydrochloride], the half-inhibitory concentration (IC50) in assay [1] turned out to be 300 nM; in assay [2], 100 nM; in assay [3], 3 nM; in assay [4], 0.7 nM. Moreover, the “Plasma GH concentrations mean ± SD” value in the assay on Sprague-Dawley (SD) rats (four hours after administration, n = 5) stood at 11.2 ± 6.5 ng/mL. In addition, the “Plasma GH concentration versus control” value in the assay with Sprague-Dawley (SD) rats (p<0.05) is listed as “declined significantly”.
As for `NCc1cccc(C2OC(CC(=O)NCc3ccccc3F)C(=O)N(Cc3ccc(O)cc3)c3ccc(Cl)cc32)c1` (stereo not drawn) [Example 102, 3,5-Trans-N-(2-fluorobenzyl)-5-(3-aminomethylphenyl)-7-chloro-1-(4-hydroxybenzyl)-2-oxo-1,2,3,5-tetrahydro-4,1-benzoxazepine-3-acetamide•monohydrochloride], the IC50 in assay [1] is 300 nM; in assay [2] it was 60 nM; in assay [3], 80 nM; in assay [5], over 1000 nM; in assay [4], 0.1 nM.

As usually defined, the IC50 is the concentration that inhibits the measured activity by half.
